Data as given in patent US6774139B1, “Dual function microbicides” (Parker Hughes Institute, priority 2000, dated 2004).
Like-named read-outs stand apart in the source and are kept apart here.

How the values were obtained:
[1] = target: T1, purified recombinant HIV-1 RT (Human immunodeficiency virus type 1 group M subtype B, UniProt P03366); experiment: cell-free Quan-T-RT RT inhibition assay (scintillation proximity); format: biochemical; conditions: for IC50: purified recombinant HIV-1 RT, cell-free
T1 construct: purified recombinant HIV-1 RT
Method: Each of the thirty one thiourea compounds was tested for RT inhibitory activity against purified recombinant HIV-1 RT using the cell-free Quan-T-RT system (Amersham Corp., Arlington Heights, Ill.), which utilizes the scintillation proximity assay principle.

HIV-1 strain HTLVIIIB = experiment: p24 antigen production in HIV-1 infected PBMCs; format: cell-based
Method: The HTLVIIIB strain of HIV-1 was propagated in CCRF-CEM cells and the virus stocks obtained from cell-free supernatants of infected cells were titered using MT-2 cells. Cell-free supernatants were harvested and frozen in 1 ml aliquots at −70° C.
Stock solutions (10 mM) of thiourea compounds were prepared in dimethylsulfoxide (DMSO). Cells were cultured for 7 days in 96-well microtiter plates (100 μl/well; 2×10^6 cells/ml, triplicate wells) in the presence and absence of various concentrations (0.001 μM to 100 μM) of the thioureas. Cells from non-infected controls were handled in the same way except the virus was omitted from the preparation. Aliquots of culture supernatants were removed from the wells on the 7th day after infection for p24 antigen as previously described. The p24 enzyme immunoassay was the unmodified kinetic assay available commercially (Coulter Corporation/Immunotech, Inc., Westbrook, Me.). The assay uses a murine monoclonal antibody (mAb) to the HIV core protein coated onto microwell strips to which the antigen present in the test culture supernatant sample binds. The plates were read on a ELISA reader (Molecular Devices, Sunnyvale, Calif.) at 650 nm and p24 levels, expressed as ng/ml, were calculated against known standards supplied by Coulter/Imrunotech, Inc. Percent viral inhibition was calculated by comparing the p24 values for the test substance-treated infected cells with the p24 values for untreated infected cells (i.e., virus controls). […]

human sperm = experiment: sperm immobilizing activity (SIA) by CASA; format: cell-based; conditions: for EC50: read-out: EC50 [SIA]
Method: To evaluate the effect of each of the 31 thiourea compounds on human sperm motility and kinematics, highly motile fractions of sperm were prepared from donor semen (n=8) by discontinuous (90-45%) gradient centrifugation using Enhance Plus medium (Conception Technologies, San Diego, Calif.) and the “swim-up” method. The swim-up method was used after density gradient centrifugation, washing, and resuspension of sperm in BWW-3% BSA. Pooled swim-up fraction was washed once prior to spermicidal assay.
All donor semen specimens were obtained after informed consent and in compliance with the guidelines of the Parker Hughes Institute Institutional Review Board. […] The stock solutions of thioureas were prepared in DMSO (100 mM) and diluted in assay medium to yield the desired concentrations (up to 1000 μM). Corresponding volume of DMSO (either 0.5% or 1%) was added to control tubes. After 3 hours of incubation at 37° C., the percentage of motile sperm was evaluated by CASA [53, 62-64]. The percent motilities were compared with sham-treated control suspensions of motile sperm.
For CASA, 5-μl of each sperm suspension was loaded into a 20-μm Microcell slide (Conception Technologies) in a counting chamber at 37° C. At least 5-8 fields per slide were scanned for analysis using a Hamilton Thome Integrated Visual Optical System (IVOS), version 10 instrument (Hamilton Thome Research Inc., Danvers, Mass.). Each field was recorded for 30 seconds. The computer calibrations were set at 30 frames at a frame rate of 30/second.
The sperm kinematics parameters that were determined included numbers of motile (MOT) and progressively (PRG) motile sperm; curvilinear velocity (VCL; a measure of the total distance traveled by a given sperm during the acquisition divided by the time elapsed); average path velocity (VAP; the spatially averaged path that eliminates the wobble of the sperm head), straight line velocity (VSL; the straight-line distance from beginning to end of track divided by time taken), beat cross frequency (BCF; frequency of sperm head crossing sperm average path), the amplitude of lateral head displacement (ALH; the mean width of sperm head oscillation), and the derivatives, straightness (STR=VSL/VAP×100) and linearity (LIN=VSL/VCL×100; departure of sperm track from a straight line). Data from each individual cell track were recorded and analyzed. At least 200 motile sperm were analyzed for each aliquot sampled.

[2] = partition coefficient n-octanol/water (Pa); format: physicochemical; conditions: UV absorption
Method: Partition of the test compounds between n-octanol and water as a measure of their lipophilicity was determined by taking the UV absorption of each compound in n-octanol, water-saturated n- octanol (1:1), and n-octanol-saturated water (1:1). The UV absorption maxima were determined by selecting a wavelength with the maximum absorption peak in the water-saturated octanol layer and the corresponding peak in the octanol-saturated water. Three absorption spectra were obtained for each compound. The partion coefficient (Pa) was calculated as the ratio of the compound concentration present in the lipid phase to the compound concentration present in the aqueous phase.

[3] = Human immunodeficiency virus 1, PBMC, HIV-1 HTLVIIIB infected human PBMC, p24 antigen on 7th day, read-out: IC50 [p24]
[4] = Human immunodeficiency virus 1, PBMC, HIV-1 HTLVIIIB infected human PBMC, values in nM, read-out: IC50[p24]
[5] = motile human sperm, 3 hours at 37° C., CASA
[6] = Human immunodeficiency virus 1, PBMC, read-out: IC50 [p24]

S=C(NCCc1ccc(Cl)cc1)Nc1ccc(Br)cn1 [HI 255]
IC50 ([1]; IC50 [rRT]): 400 to 6400 nM | IC50 (HIV-1 strain HTLVIIIB; [3]): 1 nM | IC50 (HIV-1 strain HTLVIIIB; [4]): 1 to 10 nM | EC50 (human sperm; [5]): 160000 nM | Pa, Partition coefficient [2]: 2.23

S=C(NCCC1=CCCCC1)Nc1ccccn1 [HI-541]
IC50 ([1]; IC50 [rRT]): 5300 nM | IC50 (HIV-1 strain HTLVIIIB; [3]): 10 nM | EC50 (human sperm; [5]): > 500000 nM

CC1(C)C2CCC(CNC(=S)Nc3ccc(Br)cn3)C1C2 (stereo not drawn) [HI 444]
anti-HIV activity (in words) [1]: loss of anti-HIV activity | IC50 ([1]; read-out: IC50 [rRT]): > 100000 nM | EC50 (human sperm; [5]): > 500000 nM | Pa, Partition coefficient [2]: 2.1

FC(F)(F)c1ccc(NC(=S)NCCc2ccccn2)nc1 [HI 309]
IC50 ([1]; IC50 [rRT]): 13900 nM | EC50 (human sperm; [5]): > 500000 nM | Pa, Partition coefficient [2]: 3.81

Oc1ccc(CCNC(=S)Nc2ccc(Br)cn2)cc1 [HI 256, N-[2-(4-hydroxyphenethyl)]-N′-[2-(5-bromopyridyl)]thiourea]
IC50 (HIV-1 strain HTLVIIIB; [6]): 3060 nM | EC50 (human sperm; [5]): 233000 ± 68000 nM | Pa, Partition coefficient [2]: 2.93

Cc1ccc(CCNC(=S)Nc2ccc(Br)cn2)cc1 [HI 244]
IC50 ([1]; IC50 [rRT]): 700 nM | IC50 (HIV-1 strain HTLVIIIB; [3]): 30 nM | EC50 (human sperm; [5]): > 500000 nM | Pa, Partition coefficient [2]: 1.49

S=C(NCCN1CCCC1)Nc1ccc(Br)cn1 [HI 230]
IC50 ([1]; IC50 [rRT]): > 100000 nM | IC50 (HIV-1 strain HTLVIIIB; [3]): 1000 nM | EC50 (human sperm; [5]): > 500000 nM | Pa, Partition coefficient [2]: 7.91

Fc1cccc(CCNC(=S)Nc2ccc(Br)cn2)c1 [HI 241]
IC50 ([1]; IC50 [rRT]): 700 nM | IC50 (HIV-1 strain HTLVIIIB; [3]): < 1 nM | IC50 (HIV-1 strain HTLVIIIB; [4]): < 1 nM | EC50 (human sperm; [5]): > 500000 nM

Fc1ccc(CCNC(=S)Nc2ccc(Br)cn2)cc1 [HI 242]
IC50 ([1]; IC50 [rRT]): 6400 nM | IC50 (HIV-1 strain HTLVIIIB; [3]): 9 nM | IC50 (HIV-1 strain HTLVIIIB; [4]): 1 to 10 nM | EC50 (human sperm; [5]): > 500000 nM | Pa, Partition coefficient [2]: 10.7

S=C(NCCc1cccs1)Nc1ccc(Br)cn1 [HI 443]
IC50 ([1]; IC50 [rRT]): 5300 nM | IC50 (HIV-1 strain HTLVIIIB; [6]): 30 nM | EC50 (human sperm; [5]): > 500000 nM

FC(F)(F)c1ccc(NC(=S)NCCN2CCCCC2)nc1 [HI 344]
IC50 ([1]; IC50 [rRT]): > 100000 nM | EC50 (human sperm; [5]): 131000 nM | Pa, Partition coefficient [2]: 10.27

COc1cccc(CCNC(=S)Nc2ccc(Br)cn2)c1 [HI 239]
IC50 ([1]; IC50 [rRT]): 400 nM | IC50 (HIV-1 strain HTLVIIIB; [3]): 3 nM | IC50 (HIV-1 strain HTLVIIIB; [4]): 1 to 10 nM | EC50 (human sperm; [5]): > 500000 nM | Pa, Partition coefficient [2]: 1.07

S=C(NCCc1cccc(Cl)c1)Nc1ccc(Br)cn1 [HI 254]
IC50 ([1]; IC50 [rRT]): 3100 nM | IC50 (HIV-1 strain HTLVIIIB; [3]): 10 nM | EC50 (human sperm; [5]): > 500000 nM | Pa, Partition coefficient [2]: 6.20

S=C(NCCc1ccccc1)Nc1ccc(Br)cn1 [HI 275]
IC50 ([1]; IC50 [rRT]): 1250 nM | IC50 (HIV-1 strain HTLVIIIB; [3]): 4 nM | IC50 (HIV-1 strain HTLVIIIB; [4]): 4 nM | EC50 (human sperm; [5]): 361000 ± 31000 nM | Pa, Partition coefficient [2]: 3.50

COc1ccc(OC)c(CCNC(=S)Nc2ccc(Br)cn2)c1 [HI 236]
IC50 ([1]; IC50 [rRT]): 100 nM | IC50 (HIV-1 strain HTLVIIIB; [3]): < 1 nM | IC50 (HIV-1 strain HTLVIIIB; [4]): < 1 nM | EC50 (human sperm; [5]): > 500000 nM | Pa, Partition coefficient [2]: 1.78

FC(F)(F)c1ccc(NC(=S)NCCc2ccccc2)nc1 [HI 308, N-[2-(phenethyl)]-N′-[2-(5-trifluoromethylpyridinyl)]-thiourea]
anti-HIV activity (in words) [1]: inactive | IC50 ([1]; IC50 [rRT]): > 100000 nM | EC50 (human sperm; [5]): > 500000 nM

COc1ccc(CCNC(=S)Nc2ccc(Br)cn2)cc1OC [HI 232]
IC50 ([1]; IC50 [rRT]): > 100000 nM | EC50 (human sperm; [5]): > 500000 nM | Pa, Partition coefficient [2]: 22.7

Fc1cccc(CCNC(=S)Nc2ccc(Br)cn2)c1 [HI 345]
IC50 ([1]; read-out: IC50 [rRT]): 700 nM | EC50 (human sperm; [5]): > 500000 nM | Pa, Partition coefficient [2]: 1.51

S=C(NCCc1ccccn1)Nc1ccc(Br)cn1 [Trovirdine, reference compound]
IC50 (HIV-1 strain HTLVIIIB; [6]): 7 nM | SIA / sperm motility (in words) (human sperm): lacked SIA | EC50 (human sperm; Homo sapiens, Sperm, 3 h): > 500000 nM | Pa, Partition coefficient [2]: 5.3

COc1ccccc1CCNC(=S)Nc1ccc(Br)cn1 [HI 237]
IC50 ([1]; IC50 [rRT]): 1000 nM | IC50 (HIV-1 strain HTLVIIIB; [3]): 10 nM | EC50 (human sperm; [5]): > 500000 nM | Pa, Partition coefficient [2]: 3.79

S=C(NCCc1ccc(Br)cc1)Nc1ccc(Br)cn1 [HI 243]
IC50 ([1]; IC50 [rRT]): 900 nM | IC50 (HIV-1 strain HTLVIIIB; [3]): 70 nM | EC50 (human sperm; [5]): > 500000 nM | Pa, Partition coefficient [2]: 4.16

S=C(NCCN1CCNCC1)Nc1ccc(Br)cn1 [HI 258]
IC50 ([1]; IC50 [rRT]): > 100000 nM | IC50 (HIV-1 strain HTLVIIIB; [3]): 2 nM | IC50 (HIV-1 strain HTLVIIIB; [4]): 2 nM | EC50 (human sperm; [5]): > 500000 nM | Pa, Partition coefficient [2]: 5.92

S=C(NCCN1CCCCC1)Nc1ccc(Br)cn1 [HI 172]
IC50 ([1]; IC50 [rRT]): 5800 nM | IC50 (HIV-1 strain HTLVIIIB; [3]): < 1 nM | IC50 (HIV-1 strain HTLVIIIB; [4]): < 1 nM | EC50 (human sperm; [5]): > 500000 nM | Pa, Partition coefficient [2]: 8.91

COc1ccc(OC)c(CCNC(=S)Nc2ccc(C(F)(F)F)cn2)c1 [HI 310, N-[2-(5-dimethoxyphenethyl)]-N′-[2-(5-trifluoromethylpyridinyl)]-thiourea]
IC50 ([1]; read-out: IC50 [rRT]): 2000 nM | IC50 (HIV-1 strain HTLVIIIB; HIV-1 HTLVIIIB infected human PBMC, p24 antigen on 7th day, read-out: IC50 [p24]): 80 nM | EC50 (human sperm; [5]): 276000 ± 22000 nM | Pa, Partition coefficient [2]: 1.00

FC(F)(F)c1ccc(NC(=S)NCCC2=CCCCC2)nc1 [HI 347, N-[2-(5-trifluoromethylpyridinyl)]-N′-[2-(1-cyclohexenyl)ethyl]-thiourea]
IC50 (HIV-1 strain HTLVIIIB; [6]): 79 nM | anti-HIV activity, fold less active than halo functionalized derivatives (HIV-1 strain HTLVIIIB; versus PHI-346 and PHI-445): 26 fold | effective 100% inhibitory concentration (EC100), sperm motility (human sperm; FIG. 1, CASA): 0.25 mM | EC50 (human sperm; [5]): 131000 ± 4000 nM | SIA, fold less active than halo functionalized derivatives (human sperm; versus PHI-346 and PHI-445): two to three-fold less active | Pa, Partition coefficient [2]: 11.5

Fc1ccccc1CCNC(=S)Nc1ccc(C(F)(F)F)cn1 [HI 311]
IC50 ([1]; IC50 [rRT]): 600 nM | IC50 (HIV-1 strain HTLVIIIB; [3]): 90 nM | EC50 (human sperm; [5]): > 500000 nM | Pa, Partition coefficient [2]: 5.13
